Test results: patent US7713996B2, “Indolyl derivatives which are L-CPT1 inhibitors” (Hoffmann-La Roche Inc., priority 2005, dated 2010)

Biological target: T1, L-CPT1 (Homo sapiens, UniProt P50416)
T1 construct: made in house; host or cells: Pichia pastoris strain X-33
T1 sequence (P50416 1-773): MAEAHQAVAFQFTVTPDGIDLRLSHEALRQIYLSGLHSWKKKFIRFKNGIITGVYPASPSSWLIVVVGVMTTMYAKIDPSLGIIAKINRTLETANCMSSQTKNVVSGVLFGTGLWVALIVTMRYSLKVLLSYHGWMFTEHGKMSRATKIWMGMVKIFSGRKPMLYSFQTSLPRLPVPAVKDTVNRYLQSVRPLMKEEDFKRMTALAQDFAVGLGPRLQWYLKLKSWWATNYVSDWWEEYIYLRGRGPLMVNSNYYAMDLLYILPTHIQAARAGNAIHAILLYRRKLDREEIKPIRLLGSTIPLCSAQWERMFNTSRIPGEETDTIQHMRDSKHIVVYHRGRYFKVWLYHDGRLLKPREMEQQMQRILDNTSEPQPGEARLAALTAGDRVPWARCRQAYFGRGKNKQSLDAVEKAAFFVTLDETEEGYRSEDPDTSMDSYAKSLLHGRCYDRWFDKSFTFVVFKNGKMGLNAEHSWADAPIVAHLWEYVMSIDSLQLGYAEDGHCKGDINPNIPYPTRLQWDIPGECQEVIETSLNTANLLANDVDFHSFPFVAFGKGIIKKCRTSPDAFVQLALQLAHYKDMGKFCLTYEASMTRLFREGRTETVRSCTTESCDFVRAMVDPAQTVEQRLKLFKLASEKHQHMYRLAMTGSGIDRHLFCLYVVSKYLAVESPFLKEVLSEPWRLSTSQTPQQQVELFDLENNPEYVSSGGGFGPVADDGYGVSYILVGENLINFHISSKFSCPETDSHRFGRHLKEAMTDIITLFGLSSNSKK
Assay: L-CPT1 inhibition, spectrophotometric CPT activity assay with DTNB (Ellman's reagent)
Assay type: biochemical
Details: human liver CPT1 expressed in P. pastoris, cell extracts; carnitine 500 μM, palmitoyl-CoA 80 μM, DTNB 300 μM, pH 7.4
Method: The following tests were carried out in order to determine the activity of the compounds of the present invention. Background information on the performed assays can be found in: Jackson et al., 1999, Biochem. J. 341, 483-489 and Jackson et al., 2000, J. Biol. Chem. 275, 19560-19566.
Human liver and muscle CPT1 cDNAs and rat CPT2 cDNA were subcloned in pGAPZB or pGAPZA, respectively. These plasmids were used to transform P. pastoris strain X-33 via electroporation after the preparation of electrocompetent cells. High copy number clones were selected where necessary using 0.5 or 1 mg/ml Zeocin. Cultures for activity measurements were induced for 16 h in YPD medium (1% yeast extract, 2% peptone, 2% glucose). Crude cell extracts were prepared by disrupting the cells with glass beads or French Press, depending on fermenter sizes. After centrifugation, the cell-free extracts were resuspended in cell breaking buffer (50 mM Tris, pH7.4, 100 mM KCl, 1 mM EDTA) in the presence of a protease inhibitor cocktail, before aliquoting and freezing at −20° C.
CPT activity was measured using a spectrophotometric assay using 5,5′-dithio-bis-(2-nitrobenzoic acid) (DTNB) also called Ellman's reagent. The HS-CoA released on the formation of acylcarnitine from carnitine (500 μM) and palmitoyl-CoA (80 μM) reduced DTNB (300 μM) forming 5-mercapto-(2-nitrobenzoic acid) which absorbed at 410 nm with a molar coefficient extinction of 13600 M^−1·cm^−1. The assay buffer contained 120 mM KCl, 25 mM Tris, pH 7.4, 1 mM EDTA. This assay was used for the identification of selective inhibitors of the liver CPT1 isoform versus the muscle CPT1 and CPT2 isoforms.

How did the IC50 turn out when `O=C(Nc1ccc(C(=O)O)c(Cl)c1)c1ccc2c(c1)N(S(=O)(=O)c1cccc(Cl)c1)CC2` [Example 1, 2-Chloro-4-{[1-(3-chloro-benzenesulfonyl)-2,3-dihydro-1H-indole-6-carbonyl]-amino}-benzoic acid] was run?
Its IC50 is 160 nM.

With `COc1ccc(Cl)cc1S(=O)(=O)N1CCc2ccc(C(=O)Nc3ccc(C(=O)O)c(F)c3)cc21` [Example 12, 4-{[1-(5-Chloro-2-methoxy-benzenesulfonyl)-2,3-dihydro-1H-indole-6-carbonyl]-amino}-2-fluoro-benzoic acid] as the compound, how does the IC50 read?
Its IC50 is 72.2 nM.

`COc1ccc(Cl)cc1S(=O)(=O)N1CCc2ccc(C(=O)Nc3ccc(C(=O)O)cc3)cc21` [Example 31, 4-{[1-(5-Chloro-2-methoxy-benzenesulfonyl)-2,3-dihydro-1H-indole-6-carbonyl]-amino}-benzoic acid] was tested. Which IC50 did it give?
The IC50 was 20.6 nM.
